For one series, the system named is sheep. Briefly: Invasive cardiac hemodynamic measurements in experimental sheep model. It is filed as in vivo. The text has this: An experimental sheep model, developed for invasive hemodynamic measurements under various conditions, was used to study the potentiating and synergistic effects of inosine on continuous adenosine infusion. The model is described in Tanoue et al., “Ischemic preconditioning reduces unloaded myocardial oxygen consumption in an in-vivo sheep model,” Cardiovascular Research 55: 633-641 (2002) and Xia et al., “Remote preconditioning lessens the deterioration of pulmonary function after repeated coronary artery occlusion and reperfusion,” Canadian Journal of Anesthesia 50: 481-488 (2003), the disclosures of which are incorporated herein by reference in their entireties. A total of twelve animals were studied. Briefly, the sheep were premedicated, anesthetized, intubated, and ventilated with positive pressure ventilation. Electrocardiogram (ECG) was continuously followed. The carotid artery was surgically denuded to place an arterial line for arterial blood pressure (ABP) measurement. Denuding of the jugular vein was performed to place a double or triple lumen central venous line for measurement of central venous pressure (CVP) and fluid and drug administration. A small left thoracotomy was made in the third or fourth intercostal space and the heart suspended in a pericardial cradle. A flow probe (transonic probe) was placed around the pulmonary artery and around the left circumflex coronary artery. A catheter was inserted in the pulmonary artery to determine pulmonary arterial pressure. In addition, 9 animals received a conductance catheter which was positioned in the left and right ventricle and preload-afterload variations were made by occlusion and/or constriction of the caval veins and/or pulmonary artery and/or aorta in order to study myocardial contractility. Regional blood flow measurements were also performed using a colored microsphere injection technique. Each animal served as its own control. The sequence of measurements was always the same: 1) under baseline conditions; 2) under adenosine; 3) 15 minutes stabilization, then new measurements under baseline conditions; 4) measurements under bidosine. From the first three animal experiments, it was determined that adenosine 200 μg/kg/min was the optimal single agent adenosine dose, i.e., the dose ensuring the highest coronary flow (adenosine max). Therefore, all further experiments compared this dose to the BIDOSINE formulation containing 100 μg/kg/min (that is, half adenosine max) adenosine+500 μg/kg/min inosine (A:I ratio of 1:5).

Another series has as its system anaesthetized rats. Briefly: Carotid blood flow (CaBF) in anaesthetized rats, continuous i.v. infusion. It is filed as in vivo, rat. The protocol: The study was conducted on 7 week old male Wistar rats weighing 250-300 g. Rats were anaesthetized with Inactin 100 mg/kg i.p. Inactin was preferred to other anaesthetics because of its moderate impact on blood pressure. Heparin-filled (100 IU/ml in saline) catheters were introduced into the left common carotid artery and into the left jugular vein for measurement of blood pressure and drug administration respectively. A flow probe was inserted around the right carotid artery for measurement of carotid blood flow (CaBF).
In a first series of experiments, adenosine was administered as a single agent to identify the dose providing maximal increase in carotid arterial blood flow (“adenosine max”). In this experiment, various concentrations of adenosine were infused continuously through the jugular vein catheter for 5 minutes, with concurrent measurement of carotid arterial blood flow.
A second series of experiments was performed to assess whether inosine could potentiate the effects on CaBF of a continuous intravenous infusion of adenosine at half adenosine max.
In each experiment, the effect on CaBF of (i) adenosine as a single agent, infused continuously for five minutes at adenosine max (0.1 mg/kg/min), (ii) adenosine as single agent infused continuously for five minutes at half adenosine max (0.05 mg/kg/min), and (iii) a composition containing a fixed dose of adenosine at half adenosine max (0.05 mg/kg/min) combined with inosine infused continuously for five minutes, was assessed. In separate experiments, inosine was included in the combined (“BIDOSINE”) composition in amounts required to achieve infusion at 0.1 mg/kg/min (A:I weight ratio of 1:2, FIG. 2A), 0.15 mg/kg/min (A:I weight ratio of 1:3, FIG. 2B), 0.2 mg/kg/min (A:I weight ratio of 1:4, FIG. 2C), and 0.25 mg/kg/min (A:I weight ratio of 1:5, FIG. 2D).

For series [1] the following is noted: cited from earlier work.
Setting [2] is: adenosine 200 μg/kg/min or BIDOSINE (adenosine 100 + inosine 500 μg/kg/min).
The mark [3] stands for this setting: adenosine 200 μg/kg/min or BIDOSINE (adenosine 100 + inosine 500 μg/kg/min), listed as Adenosine.

Consider one compound from patent US20080056993A1, “Compositions, Methods and Kits Using Adenosine and Inosine in Combination for Diagnosis and Treatment” (ADENOBIO N.V., priority 2006, published 2008).

As to `Nc1ncnc2c1ncn2[C@@H]1O[C@H](CO)[C@@H](O)[C@H]1O` [adenosine], in the series on sheep (setting [2]), the “Cardiac output (co), mean” value was determined as 4943; the “Central venous pressure (CVP), mean” value turned out to be 9.4875; the “Coronary flow (cf), mean” value was found to be 129.55; the “Heart rate (HR), mean” value turned out to be 90.6375. In addition, in the series on sheep (setting [2]), the “Left ventricular dP/dtmax (contractility) (dpmax), mean” value worked out at 1077.714; the “Left ventricular dP/dtmin (relaxation) (dpmin), mean” value is listed as “worsened significantly more”; the “Mean arterial blood pressure (ABPm), mean” value is “decreased significantly more”; the “Mean pulmonary arterial pressure (pupm), mean” value came to 16.425. Further, the “Systolic left ventricular pressure (LVPsys), mean” value in the series on sheep (setting [2]) is on record as “decreased significantly more”. In the series on sheep (setting [3]), the “Left ventricular dP/dtmin (relaxation) (dpmin), mean” value is on record as −821.286; the “Mean arterial blood pressure (ABPm), mean” value amounted to 43.2625; the “Systolic left ventricular pressure (LVPsys), mean” value came to 59.35. Besides, the “left ventricular relaxation constant (Tau) compared with baseline” value in the series with sheep (adenosine at adenosine max or BIDOSINE A:I 1:5, ANOVA p=0.001) is reported as “significantly shorter”. Further, the coronary blood flow with sheep (continuous i.v. infusion, adenosine 200 μg/kg/min or BIDOSINE (100 + 500 μg/kg/min)) was 129.5 cms/sec. Moreover, in the series on sheep (from the first three animal experiments), the “optimal single agent adenosine dose, ensuring the highest coronary flow (adenosine max)” value came out at 200 µg/kg/min. The “adenosine dose providing maximal CaBF as a single agent (adenosine max)” value in the series on anaesthetized rats (5 min continuous i.v. infusion, 0.01-1 mg/kg/min tested) came out at 0.1 mg/kg/min. The “increase in CaBF, percentage variation from baseline” value in the series on anaesthetized rats (6 min continuous i.v. infusion, adenosine 0.05 mg/kg/min, inosine 0.2 mg/kg/min, alone or combined (A:I 1:4), Mean±SEM, n=6) was found to be 7±4%. The half life entry in series [1] was “several seconds”.
